The source made the active and inactive calls. The calls are words filed in the database; no cut-off is given here.
Columns and labels:
[1] = Ratio of AUC (0 to t) to AUC (0 to infinity) in male Sprague-Dawley rat at 20 mg/kg, po measured after 12 hrs by LC-MS/MS analysis; format: ADME, organism-based; conditions: in vivo
[2] = system: 4T1; assay: cells; format: functional, cell-based; conditions: Mus musculus, 4T1, 72 h
[3] = system: B16-F10; assay: Anti-invasive activity in mouse B16-F10 cells assessed as reduction in invasive capacity at 5 to 20 uM incubated for 24 to 48 hrs by crystal violet staining based microscopic analysis; format: functional, cell-based; conditions: dose 5-20 µM, time 24-48 hrs
[4] = system: B16-F10; assay: Induction of apoptosis in mouse B16-F10 cells assessed as increase in apoptotic cells at 10 uM incubated for 48 hrs by Annexin V-FITC/PI staining based flow cytometric analysis relative to control; format: functional
[5] = system: B16-F10; assay: Induction of apoptosis in mouse B16-F10 cells assessed as increase in apoptotic cells at 20 uM incubated for 48 hrs by Annexin V-FITC/PI staining based flow cytometric analysis relative to control; format: functional
[6] = biological target: T1, Histone deacetylase 3 (Mus musculus) (UniProt O88895); assay: Inhibition of HDAC3 in mouse B16-F10 cells assessed as increase in histone H3 acetylation level at 5 to 20 uM incubated for 24 hrs by Western blot analysis; format: cell-based; conditions: dose 5-20 µM
T1 sequence (whole entry): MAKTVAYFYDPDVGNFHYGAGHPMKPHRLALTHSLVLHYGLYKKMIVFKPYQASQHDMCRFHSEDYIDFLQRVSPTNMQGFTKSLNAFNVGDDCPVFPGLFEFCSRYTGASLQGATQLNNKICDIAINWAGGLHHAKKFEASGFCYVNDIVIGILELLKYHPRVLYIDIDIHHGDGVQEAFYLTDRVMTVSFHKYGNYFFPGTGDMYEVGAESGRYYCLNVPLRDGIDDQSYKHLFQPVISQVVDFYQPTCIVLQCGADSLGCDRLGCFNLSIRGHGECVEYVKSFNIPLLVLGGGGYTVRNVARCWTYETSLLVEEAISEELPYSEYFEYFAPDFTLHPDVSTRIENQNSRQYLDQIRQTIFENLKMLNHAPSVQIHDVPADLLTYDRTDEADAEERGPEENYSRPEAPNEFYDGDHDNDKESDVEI

[7] = system: 4T1; assay: Effect on acetylated H3K56 expression level in mouse 4T1 cells at 5 to 20 uM incubated for 24 hrs by Western blot analysis; format: functional, cell-based; conditions: dose 5-20 µM
[8] = biological target: Programmed cell death 1 ligand 1 (Mus musculus) (UniProt Q9EP73); assay: Induction of PD-L1 degradation in mouse B16-F10 cells assessed as decrease in PD-L1 protein level at 5 uM incubated for 24 hrs by DAPI staining based immunofluorescence analysis; format: cell-based
Chain of Programmed cell death 1 ligand 1 (Mus musculus) (Q9EP73 whole entry): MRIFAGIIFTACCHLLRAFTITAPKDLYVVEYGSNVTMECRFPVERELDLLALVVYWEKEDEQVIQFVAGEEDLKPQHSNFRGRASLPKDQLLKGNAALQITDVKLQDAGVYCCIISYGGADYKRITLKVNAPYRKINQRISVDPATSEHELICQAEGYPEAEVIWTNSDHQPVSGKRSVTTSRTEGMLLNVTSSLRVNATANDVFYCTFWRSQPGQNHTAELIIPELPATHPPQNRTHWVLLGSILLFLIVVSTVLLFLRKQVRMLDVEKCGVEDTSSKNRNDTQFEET

[9] = Apparent volume of distribution in male Sprague-Dawley rat at 20 mg/kg, po measured after 12 hrs by LC-MS/MS analysis; format: ADME, organism-based; conditions: in vivo
[10] = Toxicity in male C57BL/6 mouse implanted with mouse B16-F10 cells assessed as histopathological changes in liver at 50 mg/kg, po administered once daily for 14 days by HandE staining based microscopic analysis; format: organism-based; conditions: in vivo, 336 h, time 14 day
[11] = system: Mus musculus; assay: In vivo induction of PD-L1 degradation in male C57BL/6 mouse model implanted with mouse B16-F10 cells assessed as decrease in PD-L1 protein expression in tumor at 50 mg/kg, po co-administered with NP-19 as once daily dosage via gavage for 14 days by DAPI staining based immunofluorescence analysis; format: functional, organism-based; conditions: time 14.0 day

**Q.** With `CCCNNC(=O)c1ccc(Cn2c3ccccc3c3c(-c4ccccn4)nc4ccccc4c32)cc1` as the compound, how does the “Ratio AUC” value [1] read?
**A.** Its value is 96.65%.

**Q.** What about the IC50 [2] of the same compound?
**A.** Its IC50 is 8.26 µM.

**Q.** What about the Activity [3] of the same compound?
**A.** The Activity was “Active”.

**Q.** What about the Activity [4] of the same compound?
**A.** The Activity was 44.7%.

**Q.** What about the Activity [5] of the same compound?
**A.** The Activity was 60.7%.

**Q.** And the inhibition [6]?
**A.** The inhibition was “Active”.

**Q.** And the Activity [7]?
**A.** The Activity was “inactive”.

**Q.** And the Activity [8]?
**A.** Its Activity is “Active”.

**Q.** And the Vz [9]?
**A.** Its Vz is 7.322 L/kg.

**Q.** And the Activity [10]?
**A.** The Activity was “Non-toxic”.

**Q.** What about the Activity [11] of the same compound?
**A.** Its Activity is “Active”.

Reference: ChEMBL document CHEMBL6096732 (J Med Chem, 2025)
